# In US20020169111A1, “Reversal of multidrug resistance in human colon carcinoma cells” (American Cyanamid Comany, priority 1998, published 2002):
# System: S1-M1-3.2 cells
# Conditions: for Toxicity (>20%): compound alone, concentration that causes greater than 20% cell death of S1-M1-3.2 cells; for IC50: read-out: IC50 (μM), resensitizing S1-M1-3.2 cells to mitoxantrone, with 3.2 μM mitoxantrone, 50% cancer cell death
# Procedure: One of the first reported molecules with reversing activity was verapamil, a calcium channel blocker. […] Cells were plated into 96-well dishes (100 μl/well) in growth medium supplemented with 5% FBS. […] Reversal agents were tested from 0.1-80 μM (triplicate points per dose). In parallel wells, cells were grown in the presence of the reversal agent alone.
# The Difference Score is the difference in the percentage of cells surviving when the drug was given alone minus the percentage of cells surviving when the drug was given along with the antitumor agent.
# Cell survival was estimated using the Sulforhodamine (SRB) assay.
Compound,Toxicity (>20%),IC50
"CC(C)C[C@@H]1c2[nH]c3ccccc3c2C[C@H]2C(=O)N3CCC[C@H]3C(=O)N12 [Example 14a, (5aS,12R,14aS)-12-isobutyl-1,2,3,5a,6,11,12,14a-octahydro-5H,14H-pyrrolo[1″,2″:4′,5′]pyrazino[2′,1′:6,1]pyrido[3,4-b]indole-5,14-dione]",80.0 µM,80 µM
"CC(C)C[C@H]1c2[nH]c3ccccc3c2C[C@H]2C(=O)N3CCC[C@H]3C(=O)N21 [Example 14b, (5aS,12S,14aS)-12-isobutyl-1,2,3,5a,6,11,12,14a-octahydro-5H,14H-pyrrolo[1″,2″:4′,5′]pyrazino[2′,1′:6,1]pyrido[3,4-b]indole-5,14-dione]",35.0 µM,1 µM
"CC(C)C[C@@H]1c2[nH]c3ccccc3c2C[C@@H]2C(=O)N3CCC[C@H]3C(=O)N21 [Example 15a, (5aR,12R,14aS)-12-isobutyl-1,2,3,5a,6,11,12,14a-octahydro-5H,14H-pyrrolo[1″,2″:4′,5′]pyrazino[2′,1′:6,1]pyrido[3,4-b]indole-5,14-dione]",>80.0 µM,35 µM
"CC(C)C[C@H]1c2[nH]c3ccccc3c2C[C@@H]2C(=O)N3CCC[C@H]3C(=O)N21 [Example 15b, (5aR,12S,14aS)-12-isobutyl-1,2,3,5a,6,11,12,14a-octahydro-5H,14H-pyrrolo[1″,2″:4′,5′]pyrazino[2′,1′:6,1]pyrido[3,4-b]indole-5,14-dione]",>80.0 µM,15 µM
"CC(C)C[C@@H]1c2[nH]c3ccccc3c2C[C@H]2C(=O)N3CCC[C@@H]3C(=O)N12 [Example 16a, (5aS,12R,14aR)-12-isobutyl-1,2,3,5a,6,11,12,14a-octahydro-5H,14H-pyrrolo[1″,2″:4′,5′]pyrazino[2′,1′:6,1]pyrido[3,4-b]indole-5,14-dione]",>80.0 µM,> 80 µM
"CC(C)C[C@H]1c2[nH]c3ccccc3c2C[C@H]2C(=O)N3CCC[C@@H]3C(=O)N21 [Example 16b, (5aS,12S,14aR)-12-isobutyl-1,2,3,5a,6,11,12,14a-octahydro-5H,14H-pyrrolo[1″,2″:4′,5′]pyrazino[2′,1′:6,1]pyrido[3,4-b]indole-5,14-dione]",>80.0 µM,5.5 µM
"CC(C)C[C@@H]1c2[nH]c3ccccc3c2C[C@@H]2C(=O)N3CCC[C@@H]3C(=O)N21 [Example 17a, (5aR,12R,14aR)-12-isobutyl-1,2,3,5a,6,11,12,14a-octahydro-5H,14H-pyrrolo[1″,2″:4′,5′]pyrazino[2′,1′:6,1]pyrido[3,4-b]indole-5,14-dione]",50.0 µM,35 µM
"CC(C)C[C@H]1c2[nH]c3ccccc3c2C[C@@H]2C(=O)N3CCC[C@@H]3C(=O)N21 [Example 17b, (5aR,12S,14aR)-12-isobutyl-1,2,3,5a,6,11,12,14a-octahydro-5H,14H-pyrrolo[1″,2″:4′,5′]pyrazino[2′,1′:6,1]pyrido[3,4-b]indole-5,14-dione]",>80.0 µM,3.5 µM
"CC(C)CC1c2[nH]c3ccccc3c2CC2C(=O)N3CCCCC3C(=O)N21 [Example 18a, (6aS,13R,15aS)-13-isobutyl-1,2,3,4,6a,7,12,13,15a-nonahydro-6H,15H-pyrido[1″,2″:4′,5′]pyrazino[2′,1′:6,1]pyrido[3,4-b]indole-6H,15H-dione]",15.0 µM,50 µM
"CC(C)CC1c2[nH]c3ccccc3c2CC2C(=O)N3CCCCC3C(=O)N21 [Example 18b, (6aS,13S,15aS)-13-isobutyl-1,2,3,4,6a,7,12,13,15a-nonahydro-6H,15H-pyrido[1″,2″:4′,5′]pyrazino[2′,1′:6,1]pyrido[3,4-b]indole-6H,15H-dione]",25.0 µM,1.5 µM
"CC(C)CC1c2[nH]c3ccccc3c2CC2C(=O)N3CCCCC3C(=O)N21 [Example 19a, (6aR,13R,15aS)-13-isobutyl-1,2,3,4,6a,7,12,13,15a-nonahydro-6H,15H-pyrido[1″,2″:4′,5′]pyrazino[2′,1′:6,1]pyrido[3,4-b]indole-6H,15H-dione]",50.0 µM,11 µM
"CC(C)CC1c2[nH]c3ccccc3c2CC2C(=O)N3CCCCC3C(=O)N21 [Example 19b, (6aR,13S,15aS-13-isobutyl-1,2,3,4,6a,7,12,13,15a-nonahydro-6H,15H-pyrido[1″,2″:4′,5′]pyrazino[2′,1′:6,1]pyrido[3,4-b]indole-6H,15H-dione]",>80.0 µM,4 µM
"CC(C)CC1c2[nH]c3ccccc3c2CC2C(=O)N3CCCCC3C(=O)N21 [Example 20a, (6aS,13R,15aR)-13-isobutyl-1,2,3,4,6a,7,12,13,15a-nonahydro-6H,15H-pyrido[1″,2″:4′,5′]pyrazino[2′,1′:6,1]pyrido[3,4-b]indole-6H,15H-dione]",80.0 µM,30 µM
"CC(C)CC1c2[nH]c3ccccc3c2CC2C(=O)N3CCCCC3C(=O)N21 [Example 20b, (6aS,13S,15aR)-13-isobutyl-1,2,3,4,6a,7,12,13,15a-nonahydro-6H,15H-pyrido[1″,2″:4′,5′]pyrazino[2′,1′:6,1]pyrido[3,4-b]indole-6H,15H-dione]",50.0 µM,2 µM
"CC(C)CC1c2[nH]c3ccccc3c2CC2C(=O)N3CCCCC3C(=O)N21 [Example 21a, (6aR,13R,15aR)-13-isobutyl-1,2,3,4,6a,7,12,13,15a-nonahydro-6H,15H-pyrido[1″,2″:4′,5′]pyrazino[2′,1′:6,1]pyrido[3,4-b]indole-6H,15H-dione]",10.0 µM,10.5 µM
"CC(C)CC1c2[nH]c3ccccc3c2CC2C(=O)N3CCCCC3C(=O)N21 [Example 21b, (6aR,13S,15aR)-13-isobutyl-1,2,3,4,6a,7,12,13,15a-nonahydro-6H,15H-pyrido[1″,2″:4′,5′]pyrazino[2′,1′:6,1]pyrido[3,4-b]indole-6H,15H-dione]",>80.0 µM,6 µM
"CC(C)C[C@@H]1c2[nH]c3ccccc3c2C[C@H]2C(=O)N3CC[C@H]3C(=O)N12 [Example 22a, (4aS,11R,13aS)-11-isobutyl-1,4a,5,10,11,13a-hexahydro-4H-azeto[1″,2″:4′,5′]pyrazino[2′,1′:6,1]pyrido[3,4-b]indole-4,13(2H)-dione]",80.0 µM,15 µM
"CC(C)C[C@H]1c2[nH]c3ccccc3c2C[C@H]2C(=O)N3CC[C@H]3C(=O)N21 [Example 22b, (4aS,11S,13aS)-11-isobutyl-1,4a,5,10,11,13a-hexahydro-4H-azeto[1″,2″:4′,5′]pyrazino[2′,1′:6,1]pyrido[3,4-b]indole-4,13(2H)-dione]",>80.0 µM,2.5 µM
"O=C1[C@@H]2Cc3c([nH]c4ccccc34)[C@@H](CCCCCc3ccccc3)N2C(=O)[C@@H]2CCCN12 [Example 23a, (5aS,12R,14aS)-12-(5-phenylpentyl)-1,2,3,5a,6,11,12,14a-octahydro-5H,14H-pyrrolo[1″,2″:4′,5′]pyrazino[2′,1′:6,1]pyrido[3,4-b]indole-5,14-dione]",7.5 µM,0.3 µM
"O=C1[C@@H]2Cc3c([nH]c4ccccc34)[C@H](CCCCCc3ccccc3)N2C(=O)[C@@H]2CCCN12 [Example 23b, (5aS,12S,14aS)-12-(5-phenylpentyl)-1,2,3,5a,6,11,12,14a-octahydro-5H,14H-pyrrolo[1″,2″:4′,5′]pyrazino[2′,1′:6,1]pyrido[3,4-b]indole-5,14-dione]",>80 µM,3 µM
"O=C(NCCC[C@@H]1c2[nH]c3ccccc3c2C[C@H]2C(=O)N3CCC[C@H]3C(=O)N12)OCc1ccccc1 [Example 24a, Benzyl 3-[(5aS,12R,14aS)-5,14-dioxo-2,3,5a,6,11,12,14,14a-octahydro-1H,5H-pyrrolo[1″,2″:4′,5′]pyrazino[2′,1′:6,1]pyrido[3,4-b]indol-12-yl]propylcarbamate]",50 µM,10 µM
"O=C(NCCC[C@H]1c2[nH]c3ccccc3c2C[C@H]2C(=O)N3CCC[C@H]3C(=O)N21)OCc1ccccc1 [Example 24b, Benzyl 3-[(5aS,12S,14aS)-5,14-dioxo-2,3,5a,6,11,12,14,14a-octahydro-1H,5H-pyrrolo[1″,2″:4′,5′]pyrazino[2′,1′:6,1]pyrido[3,4-b]indol-12-yl]propylcarbamate]",20 µM,2 µM
"O=C1[C@@H]2Cc3c([nH]c4ccccc34)CN2C(=O)[C@@H]2CCCN12 [Example 25, (5aS,14aS)-1,2,3,5a,6,11,12,14a-octahydro-5H,14H-pyrrolo[1″,2″:4′,5′]pyrazino[2′,1′:6,1]pyrido[3,4-b]indole-5,14-dione]",>80 µM,15 µM
"C[C@H]1c2[nH]c3ccccc3c2C[C@H]2C(=O)N3CCC[C@H]3C(=O)N21 [Example 26, (5aS,12S,14aS)-12-methyl-1,2,3,5a,6,11,12,14a-octahydro-5H,14H-pyrrolo[1″,2″:4′,5′]pyrazino[2′,1′:6,1]pyrido[3,4-b]indole-5,14-dione]",>80.0 µM,7 µM
CC(C)=C[C@H]1c2[nH]c3ccccc3c2C[C@H]2C(=O)N3CCC[C@H]3C(=O)N21 [Example 27],>80 µM,2.5 µM
"CCCCCCCCC[C@H]1c2[nH]c3ccccc3c2C[C@H]2C(=O)N3CCC[C@H]3C(=O)N21 [Example 28, (5aS,12S,14aS)-12-nonyl-1,2,3,5a,6,11,12,14a-octahydro-5H,14H-pyrrolo[1″,2″:4′,5′]pyrazino[2′,1′:6,1]pyrido[3,4-b]Indole-5,14-dione]",7.0 µM,0.25 µM
